Reference: ChEMBL document CHEMBL1909046, “DrugMatrix in vitro pharmacology data”

Key:
[1] = molecular target: Beta-2 adrenergic receptor (Homo sapiens, UniProt P07550); experiment: DRUGMATRIX: Adrenergic beta2 radioligand binding (ligand: [3H] CGP-12177); type: cell membranes, Membrane; details: cho; Not Active = under 50% inhibition at 10 µM
[2] = DRUGMATRIX: Sodium/nucleoside co-transporter radioligand binding (ligand: nitrobenzylthioinosine); type: cell membranes, Cavia porcellus, Dunkin-Hartley, Cerebral cortex, Membrane; details: Not Active = under 50% inhibition at 10 µM
[3] = molecular target: Adenosine receptor A2a (Homo sapiens, UniProt P29274); experiment: DRUGMATRIX: Adenosine A2A radioligand binding (ligand: […]); type: cell membranes, HEK293, Membrane; details: hek293; Not Active = under 50% inhibition at 10 µM
Sequence of Adenosine receptor A2a (P29274 whole entry): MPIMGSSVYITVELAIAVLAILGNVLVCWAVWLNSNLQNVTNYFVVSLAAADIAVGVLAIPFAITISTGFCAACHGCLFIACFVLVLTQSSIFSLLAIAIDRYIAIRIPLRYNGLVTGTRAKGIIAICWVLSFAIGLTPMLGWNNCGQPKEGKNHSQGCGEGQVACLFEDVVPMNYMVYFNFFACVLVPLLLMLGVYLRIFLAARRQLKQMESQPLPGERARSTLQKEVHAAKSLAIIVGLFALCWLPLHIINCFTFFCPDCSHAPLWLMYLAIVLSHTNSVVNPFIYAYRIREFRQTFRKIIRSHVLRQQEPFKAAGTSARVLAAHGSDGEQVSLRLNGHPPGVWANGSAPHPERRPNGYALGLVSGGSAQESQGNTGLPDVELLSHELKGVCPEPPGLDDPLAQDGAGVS

[4] = molecular target: T1, Alpha-2A adrenergic receptor (Homo sapiens, UniProt P08913); type: cell membranes, Sf9, Membrane; details: sf9; note: in other assays of this panel Not Active means under 50% inhibition at 10 µM
T1 sequence (P08913 whole entry): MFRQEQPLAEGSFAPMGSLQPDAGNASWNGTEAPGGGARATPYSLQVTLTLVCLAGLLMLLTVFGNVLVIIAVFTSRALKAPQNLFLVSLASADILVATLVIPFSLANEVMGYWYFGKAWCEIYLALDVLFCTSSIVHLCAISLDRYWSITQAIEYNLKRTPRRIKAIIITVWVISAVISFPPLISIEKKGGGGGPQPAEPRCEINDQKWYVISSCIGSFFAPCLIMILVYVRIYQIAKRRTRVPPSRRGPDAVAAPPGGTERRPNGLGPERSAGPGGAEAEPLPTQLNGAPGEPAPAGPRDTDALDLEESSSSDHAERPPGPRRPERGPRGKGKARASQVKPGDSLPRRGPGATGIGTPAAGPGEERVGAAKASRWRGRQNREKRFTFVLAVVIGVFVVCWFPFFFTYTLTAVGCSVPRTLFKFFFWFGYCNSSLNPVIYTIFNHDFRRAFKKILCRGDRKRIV

[5] = molecular target: cGMP-specific 3',5'-cyclic phosphodiesterase (Homo sapiens, UniProt O76074); experiment: DRUGMATRIX: Phosphodiesterase PDE5 enzyme inhibition (substrate: [3H]cGMP + cGMP); type: tissue-based, Platelet; details: platelet; Not Active = under 50% inhibition at 10 µM
[6] = DRUGMATRIX: Calcium Channel Type L, Phenylalkylamine radioligand binding (ligand: [3H] (-)-Desmethoxyverapamil (D-888)); type: cell membranes, Rattus norvegicus, Wistar, Brain, Membrane; details: Not Active = under 50% inhibition at 10 µM
[7] = molecular target: T2, Neutrophil elastase (Homo sapiens, UniProt P08246); type: tissue-based;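 note: inhibition of neutrophil elastase enzyme activity, measured with a p-nitroanilide-linked peptide substrate; in other assays of this panel Not Active means under 50% inhibition at 10 µM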
T2 sequence (P08246 whole entry): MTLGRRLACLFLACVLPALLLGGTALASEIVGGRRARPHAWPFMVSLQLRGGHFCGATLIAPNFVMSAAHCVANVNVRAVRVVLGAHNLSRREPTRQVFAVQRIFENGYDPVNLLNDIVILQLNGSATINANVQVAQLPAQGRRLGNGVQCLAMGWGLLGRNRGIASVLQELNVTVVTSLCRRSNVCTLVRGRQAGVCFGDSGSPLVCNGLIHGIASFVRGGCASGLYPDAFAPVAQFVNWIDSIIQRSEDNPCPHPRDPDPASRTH

[8] = molecular target: Beta-1 adrenergic receptor (Homo sapiens, UniProt P08588); experiment: DRUGMATRIX: Adrenergic beta1 radioligand binding (ligand: [125I] Cyanopindolol); type: cell membranes, CHO-K1, Membrane; details: cho-k1; Not Active = under 50% inhibition at 10 µM
Sequence of Beta-1 adrenergic receptor (P08588 whole entry): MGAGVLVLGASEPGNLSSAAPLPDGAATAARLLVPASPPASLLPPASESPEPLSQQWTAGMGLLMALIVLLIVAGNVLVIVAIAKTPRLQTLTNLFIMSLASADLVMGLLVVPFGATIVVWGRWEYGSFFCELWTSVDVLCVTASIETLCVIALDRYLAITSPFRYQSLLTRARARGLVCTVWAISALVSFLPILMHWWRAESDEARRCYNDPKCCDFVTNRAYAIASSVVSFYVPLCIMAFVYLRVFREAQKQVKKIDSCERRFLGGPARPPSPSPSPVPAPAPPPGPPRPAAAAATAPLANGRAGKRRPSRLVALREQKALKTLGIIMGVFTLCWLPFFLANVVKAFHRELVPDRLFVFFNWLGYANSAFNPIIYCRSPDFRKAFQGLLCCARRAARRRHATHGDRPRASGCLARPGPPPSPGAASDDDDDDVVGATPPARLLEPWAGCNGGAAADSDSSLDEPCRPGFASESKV

[9] = molecular target: Kappa-type opioid receptor (Homo sapiens, UniProt P41145); experiment: DRUGMATRIX: Opiate kappa (OP2, KOP) radioligand binding (ligand: [3H] Diprenorphine); type: cell membranes, HEK293, Membrane; details: hek293; Not Active = under 50% inhibition at 10 µM
Sequence of Kappa-type opioid receptor (P41145 whole entry): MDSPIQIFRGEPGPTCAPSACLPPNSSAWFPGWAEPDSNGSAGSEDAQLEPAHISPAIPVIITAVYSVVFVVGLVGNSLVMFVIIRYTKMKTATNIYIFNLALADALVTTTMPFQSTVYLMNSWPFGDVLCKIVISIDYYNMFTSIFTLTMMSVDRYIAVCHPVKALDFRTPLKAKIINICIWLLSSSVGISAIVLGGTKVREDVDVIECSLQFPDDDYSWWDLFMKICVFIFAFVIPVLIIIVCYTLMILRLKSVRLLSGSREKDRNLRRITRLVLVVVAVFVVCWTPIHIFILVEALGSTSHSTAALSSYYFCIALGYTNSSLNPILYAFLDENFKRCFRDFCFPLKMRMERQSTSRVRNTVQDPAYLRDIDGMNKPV

[10] = molecular target: T3, Polyunsaturated fatty acid lipoxygenase ALOX15 (Oryctolagus cuniculus, UniProt P12530); experiment: biochemical; type: tissue-based, Reticulocytes; details: reticulocytes;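 note: inhibition of 15-lipoxygenase enzyme activity measured with linoleic acid as the substrate; in other assays of this panel Not Active means under 50% inhibition at 10 µM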
T3 sequence (P12530 whole entry): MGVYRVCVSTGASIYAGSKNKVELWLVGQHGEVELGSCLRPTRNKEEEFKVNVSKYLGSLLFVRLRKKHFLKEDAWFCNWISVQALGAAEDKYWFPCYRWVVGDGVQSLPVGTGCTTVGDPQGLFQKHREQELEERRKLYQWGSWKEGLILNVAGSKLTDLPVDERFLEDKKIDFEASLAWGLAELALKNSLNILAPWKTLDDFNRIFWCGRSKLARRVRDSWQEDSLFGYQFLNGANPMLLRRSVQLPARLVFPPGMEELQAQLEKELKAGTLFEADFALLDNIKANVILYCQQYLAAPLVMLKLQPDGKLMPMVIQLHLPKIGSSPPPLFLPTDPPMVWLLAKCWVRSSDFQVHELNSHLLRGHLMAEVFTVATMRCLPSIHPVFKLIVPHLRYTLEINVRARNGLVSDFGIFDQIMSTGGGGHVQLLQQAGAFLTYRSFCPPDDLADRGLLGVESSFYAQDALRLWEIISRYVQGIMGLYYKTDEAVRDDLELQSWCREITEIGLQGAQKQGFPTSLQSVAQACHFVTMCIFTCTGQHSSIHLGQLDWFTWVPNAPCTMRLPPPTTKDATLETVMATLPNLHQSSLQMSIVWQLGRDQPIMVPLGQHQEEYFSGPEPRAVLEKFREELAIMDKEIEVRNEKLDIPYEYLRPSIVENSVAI

[11] = molecular target: T4, Muscarinic acetylcholine receptor M4 (Homo sapiens, UniProt P08173); type: cell membranes, CHO-K1, Membrane; details: cho-k1; note: in other assays of this panel Not Active means under 50% inhibition at 10 µM
T4 sequence (P08173 whole entry): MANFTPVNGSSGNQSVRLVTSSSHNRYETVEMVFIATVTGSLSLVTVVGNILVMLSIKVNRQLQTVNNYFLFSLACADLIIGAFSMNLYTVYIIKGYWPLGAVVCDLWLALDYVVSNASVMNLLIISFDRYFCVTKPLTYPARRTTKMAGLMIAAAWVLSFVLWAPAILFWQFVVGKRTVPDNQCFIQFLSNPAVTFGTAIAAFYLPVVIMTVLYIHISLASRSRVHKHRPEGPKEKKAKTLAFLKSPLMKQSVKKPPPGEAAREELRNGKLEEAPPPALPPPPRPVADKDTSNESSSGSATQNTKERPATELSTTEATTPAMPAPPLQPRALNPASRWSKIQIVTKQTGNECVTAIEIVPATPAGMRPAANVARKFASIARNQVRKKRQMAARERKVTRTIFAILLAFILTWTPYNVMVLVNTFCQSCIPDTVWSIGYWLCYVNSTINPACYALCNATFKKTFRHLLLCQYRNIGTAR

[12] = molecular target: D(1A) dopamine receptor (Homo sapiens, UniProt P21728); experiment: DRUGMATRIX: Dopamine D1 radioligand binding (ligand: [3H] SCH-23390); type: cell membranes, CHO, Membrane; details: cho; Not Active = under 50% inhibition at 10 µM
Sequence of D(1A) dopamine receptor (P21728 whole entry): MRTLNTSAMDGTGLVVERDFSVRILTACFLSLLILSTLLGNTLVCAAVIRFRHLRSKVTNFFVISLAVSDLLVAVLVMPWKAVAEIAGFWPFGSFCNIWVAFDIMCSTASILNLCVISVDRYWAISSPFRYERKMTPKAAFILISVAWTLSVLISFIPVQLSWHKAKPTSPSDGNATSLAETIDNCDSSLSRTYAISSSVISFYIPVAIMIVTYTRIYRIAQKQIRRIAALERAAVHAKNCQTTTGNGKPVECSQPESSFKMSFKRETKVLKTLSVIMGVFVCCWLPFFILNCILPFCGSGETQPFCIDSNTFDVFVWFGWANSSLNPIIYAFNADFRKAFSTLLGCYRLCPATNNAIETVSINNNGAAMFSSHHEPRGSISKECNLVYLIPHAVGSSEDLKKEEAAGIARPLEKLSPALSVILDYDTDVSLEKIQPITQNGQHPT

Sequence of Beta-2 adrenergic receptor (P07550 whole entry): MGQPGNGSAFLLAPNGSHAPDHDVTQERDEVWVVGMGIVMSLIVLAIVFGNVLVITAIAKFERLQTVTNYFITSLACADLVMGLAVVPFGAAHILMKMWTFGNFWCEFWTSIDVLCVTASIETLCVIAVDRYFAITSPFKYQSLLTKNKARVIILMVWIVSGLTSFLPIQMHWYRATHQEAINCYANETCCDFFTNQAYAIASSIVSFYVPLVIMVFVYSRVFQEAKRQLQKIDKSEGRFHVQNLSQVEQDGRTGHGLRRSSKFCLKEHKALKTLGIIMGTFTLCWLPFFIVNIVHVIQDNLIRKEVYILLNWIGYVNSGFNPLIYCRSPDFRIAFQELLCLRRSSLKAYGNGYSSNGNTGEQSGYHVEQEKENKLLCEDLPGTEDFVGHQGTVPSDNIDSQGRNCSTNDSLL

NC(=O)c1ncn([C@@H]2O[C@H](CO)[C@@H](O)[C@H]2O)n1 [RIBAVIRIN]
Not Active: IC50 [1] | IC50 [2] | Ki [2] | IC50 [3] | IC50 [4] | IC50 [5] | IC50 [6] | Ki [6] | IC50 [7] | IC50 [8] | IC50 [9] | IC50 [10] | IC50 [11] | IC50 [12]

CC[C@H]1OC(=O)[C@H](C)[C@@H](O[C@H]2C[C@@](C)(OC)[C@@H](O)[C@H](C)O2)[C@H](C)[C@@H](O[C@@H]2O[C@H](C)C[C@H](N(C)C)[C@H]2O)[C@](C)(O)C[C@@H](C)/C(=N\OCOCCOC)[C@H](C)[C@@H](O)[C@]1(C)O [ROXITHROMYCIN]
Not Active: IC50 [1] | IC50 [2] | Ki [2] | IC50 [3] | IC50 [4] | IC50 [5] | IC50 [6] | Ki [6] | IC50 [7] | IC50 [8] | IC50 [9] | IC50 [10] | IC50 [11] | IC50 [12]

NC(=O)c1ccccc1O [SALICYLAMIDE]
Not Active: IC50 [1] | IC50 [2] | Ki [2] | IC50 [3] | IC50 [4] | IC50 [5] | IC50 [6] | Ki [6] | IC50 [7] | IC50 [8] | IC50 [9] | IC50 [10] | IC50 [11] | IC50 [12]

Cc1ncc([N+](=O)[O-])n1CC(C)O (stereo not drawn) [SECNIDAZOLE]
Not Active: IC50 [1] | IC50 [2] | Ki [2] | IC50 [3] | IC50 [4] | IC50 [5] | IC50 [6] | Ki [6] | IC50 [7] | IC50 [8] | IC50 [9] | IC50 [10] | IC50 [11] | IC50 [12]

CN[C@@H]1[C@@H](O)[C@@H](O[C@@H]2[C@@H](O)[C@H](O[C@H]3OC(CN)=CC[C@H]3N)[C@@H](N)C[C@H]2N)OC[C@]1(C)O [SISOMICIN]
Not Active: IC50 [1] | IC50 [2] | Ki [2] | IC50 [3] | IC50 [4] | IC50 [5] | IC50 [6] | Ki [6] | IC50 [7] | IC50 [8] | IC50 [9] | IC50 [10] | IC50 [11] | IC50 [12]

CC(=O)S[C@@H]1CC2=CC(=O)CC[C@]2(C)[C@H]2CC[C@@]3(C)[C@@H](CC[C@@]34CCC(=O)O4)[C@H]12 [SPIRONOLACTONE]
Not Active: IC50 [1] | IC50 [2] | Ki [2] | IC50 [3] | IC50 [4] | IC50 [5] | IC50 [6] | Ki [6] | IC50 [7] | IC50 [8] | IC50 [9] | IC50 [10] | IC50 [11] | IC50 [12]

C[C@]12Cc3c[nH]nc3C[C@@H]1CC[C@@H]1[C@@H]2CC[C@@]2(C)[C@H]1CC[C@]2(C)O [STANOZOLOL]
Not Active: IC50 [1] | IC50 [2] | Ki [2] | IC50 [3] | IC50 [4] | IC50 [5] | IC50 [6] | Ki [6] | IC50 [7] | IC50 [8] | IC50 [9] | IC50 [10] | IC50 [11] | IC50 [12]
